In data set [1] the target is T1, human normal β-galactosidase (GP8) (Homo sapiens, UniProt P16278).
T1 sequence (P16278 29-677): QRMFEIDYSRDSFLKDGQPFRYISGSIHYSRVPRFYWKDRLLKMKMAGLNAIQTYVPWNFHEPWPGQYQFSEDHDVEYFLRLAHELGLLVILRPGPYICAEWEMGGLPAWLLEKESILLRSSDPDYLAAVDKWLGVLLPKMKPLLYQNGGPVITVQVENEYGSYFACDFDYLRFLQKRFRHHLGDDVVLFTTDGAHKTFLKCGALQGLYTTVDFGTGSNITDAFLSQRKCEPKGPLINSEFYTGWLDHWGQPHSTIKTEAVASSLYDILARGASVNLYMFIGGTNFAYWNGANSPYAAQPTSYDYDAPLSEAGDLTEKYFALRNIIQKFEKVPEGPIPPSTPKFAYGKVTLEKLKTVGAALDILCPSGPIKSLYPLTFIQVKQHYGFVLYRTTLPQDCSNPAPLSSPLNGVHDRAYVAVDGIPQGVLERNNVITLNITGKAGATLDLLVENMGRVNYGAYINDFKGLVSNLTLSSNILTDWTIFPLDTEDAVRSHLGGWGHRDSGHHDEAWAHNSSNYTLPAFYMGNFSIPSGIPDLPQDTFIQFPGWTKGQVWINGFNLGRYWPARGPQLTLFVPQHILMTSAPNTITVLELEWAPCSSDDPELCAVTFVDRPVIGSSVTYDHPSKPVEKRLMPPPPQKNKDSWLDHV
In words: β-Galactosidase activity in model cells (knockout mouse fibroblasts with transferred gene) cultured 4 days with substance. On the set-up: made in house; host or cells: SV40-immortalized β-galactosidase knockout mouse skin fibroblasts. Format: cell-based. An excerpt: Cultured skin fibroblasts of a β-galactosidase-deficient knockout mouse was immortalized by introducing an SV40 viral gene, and enzyme genes integrated into pSV2neo and an expression vector were also introduced simultaneously, thereby establishing a model cell (Brain Dev., 23(5), 284-287, 2001). The genes used are human normal (GP8) and mutant β-galactosidase gene Y316C, G123R (infantile GM1-gangliosidosis), R201C (juvenile GM1-gangliosidosis), 151T, T82M, R201H, R263S, R457Q (adult GM1-gangliosidosis), W273L, Y83H, R482H and R482C (Morquio-B disease) (Hum. Genet., 93(2), 109-114, 1994).
As a control substance, 0.5 mM N-(n-butyl)-deoxygalactonojirimycin (NB-DGJ: The Journal of Biological Chemistry, 269, 27108-27114 (1994)) was used, and the substance 18 of the present invention was used in an amount of 0.2 μM.
Specifically, after culturing the model cell for 4 days using a cell culture medium (10% FCS DMEM) containing the substance 18 of the present invention, the resulting cells were recovered and diluted such that the amount of protein in the suspension became a predetermined level, and then enzyme activity in the diluted suspension was measured. Using 4-methylumbelliferyl-β-D-galactopyranoside as the fluorescent substrate, the enzyme activity during 30 minutes was measured at 37° C.

Data set [2] addresses T2, human mutant β-galactosidase R201C (Homo sapiens, UniProt P16278, R201C).
T2 construct: from tissue
T2 sequence (P16278 29-677 R201C): T1 sequence (P16278 29-677) with R173C
As to the kind of experiment: Tissue migration and recovery of β-galactosidase activity, 1 week oral administration to recombinant mice. In kind it is in vivo. Particulars: for β-galactosidase activity, Test group: mice, 1 mM in drinking water, 1 week.

Data set [3] in a line: Safety observation during 1 week oral administration test in mice. Particulars: about 1.4 mg per day orally. As to the method:
That is, tap water containing 1 mM (about 0.28 mg/ml) of the substance 18 of the present invention was continuously administered for 1 week as drinking water to recombinant mice (3 month-old) prepared by transferring a human mutant β-galactosidase gene R201C into β-galactosidase deficient knockout mice. One week thereafter, the mice were sacrificed to excise the cerebrum, the cerebellum, the heart, the lungs, the liver, the spleen, the kidney, a muscle (femoral muscle) and plasma. Also, tail tissues were used for the purpose of verifying changes in the β-galactosidase activity in the same individual before and after the administration. Each organ was crushed under ice-cooling using a homogenizer, and then the suspension of crushed cells was centrifuged at 8,000×g for 30 minutes. Thereafter, the supernatant fraction was recovered and used as an enzyme solution. The amount of protein in this enzyme solution was measured by the Bradford method, and the β-galactosidase activity was measured. With regard to the measurement of β-galactosidase activity, the enzyme activity during 30 minutes was measured at 37° C. using 4-methylumbelliferyl-β-D-galactopyranoside as the fluorogenic substrate. […] Three animals were used in each group to calculate the mean value.

Positions count from the first letter of the chain named. Several values for one entry are separate records, joined by “and”; a condition that tells them apart may be missing. Equal values may be shown once.

Turning to `CCCCN1C[C@H](O)[C@@H](O)[C@@H](O)[C@H]1CO` [Control, N-(n-butyl)-deoxygalactonojirimycin, reference compound], the “enzyme activity, Control” value in data set [1] (transferred gene GP8, control substance 0.5 mM NB-DGJ) is 74.94.

Take `CCCCCCCCN[C@@H]1C=C(CO)[C@H](O)C(O)[C@@H]1O` (stereo partly drawn) [Substance 18, N-octyl-5a-carba-α-L-arabino-hexo-5(5a)-enopyranosylamine]: the “β-galactosidase activity, Test group” value is listed as 55.4 nmol/mg protein/30 minutes in data set [2] (Cerebellum); 50.5 nmol/mg protein/30 minutes in data set [2] (Cerebrum); 241.2 nmol/mg protein/30 minutes in data set [2] (Heart); 171.1 nmol/mg protein/30 minutes in data set [2] (Kidney); 186.8 nmol/mg protein/30 minutes in data set [2] (Liver); 98.9 nmol/mg protein/30 minutes in data set [2] (Lungs). For the same compound, the “β-galactosidase activity, Test group” value is listed as 91.4 nmol/mg protein/30 minutes in data set [2] (Muscle (femoral muscle)), 23.0 nmol/mg protein/30 minutes in data set [2] (Plasma) and 266.2 nmol/mg protein/30 minutes in data set [2] (Spleen). Moreover, the Improving degree in data set [2] (Cerebellum, test group vs control) stood at 5.3 Times; in data set [2] (Cerebrum, test group vs control), 6.0 Times; in data set [2] (Heart, test group vs control), 14.2 Times; in data set [2] (Kidney, test group vs control), 6.2 Times; in data set [2] (Liver, test group vs control) it was 4.7 Times; in data set [2] (Lungs, test group vs control), 12.4 Times. Besides, the Improving degree in data set [2] (Muscle (femoral muscle), test group vs control) was 11.3 Times; in data set [2] (Plasma, test group vs control), 7.9 Times; in data set [2] (Spleen, test group vs control), 17.1 Times; in data set [2] (Tail (administered group), after vs before feeding, same individual), ~8 Times and 6.7 Times. For the same compound, in data set [2] (Tail (administered group), after 1 week feeding), the “β-galactosidase activity, After feeding” value is 518.8 nmol/mg protein/30 minutes. Moreover, the “β-galactosidase activity improved in average in the test group” value in data set [2] (average of organs, test group vs control) was 9.1 times. For the same compound, the “level of the activity obtained in the cerebrum and the cerebellum” value in data set [2] (cerebrum and cerebellum, test group) was “about 50 nmol/mg protein/30 minutes”. Besides, the health condition result in data set [3] is given as “health condition was markedly good”. For the same compound, the “Relative ratio (×100%)” value in data set [1] (GP8, substance 18 vs control) is on record as 1.05 ×100%. The same compound came in with an enzyme activity in data set [1] (transferred gene GP8, 0.2 μM, 4 days) of 78.87.

Source of the values: patent US8211945B2, “Carba-sugar amine derivative and glycolipid metabolic disorder treating agent containing the same as active ingredient” (Seikagaku Corporation, priority 2001, dated 2012).
